Calls of active or inactive are those of the source. No cut-off for these calls is given here.
Target: Transcription factor p65 (Mus musculus) (UniProt Q04207)
Test: Inhibition of TNFalpha/IL-1beta-induced NFkB p65 translocation from cytosol to nucleus in mouse MIN6 cells at 50 uM after 30 mins by immunofluorescence based high content imaging analysis
Type: cell-based

Chain of Transcription factor p65 (Mus musculus) (Q04207 whole entry): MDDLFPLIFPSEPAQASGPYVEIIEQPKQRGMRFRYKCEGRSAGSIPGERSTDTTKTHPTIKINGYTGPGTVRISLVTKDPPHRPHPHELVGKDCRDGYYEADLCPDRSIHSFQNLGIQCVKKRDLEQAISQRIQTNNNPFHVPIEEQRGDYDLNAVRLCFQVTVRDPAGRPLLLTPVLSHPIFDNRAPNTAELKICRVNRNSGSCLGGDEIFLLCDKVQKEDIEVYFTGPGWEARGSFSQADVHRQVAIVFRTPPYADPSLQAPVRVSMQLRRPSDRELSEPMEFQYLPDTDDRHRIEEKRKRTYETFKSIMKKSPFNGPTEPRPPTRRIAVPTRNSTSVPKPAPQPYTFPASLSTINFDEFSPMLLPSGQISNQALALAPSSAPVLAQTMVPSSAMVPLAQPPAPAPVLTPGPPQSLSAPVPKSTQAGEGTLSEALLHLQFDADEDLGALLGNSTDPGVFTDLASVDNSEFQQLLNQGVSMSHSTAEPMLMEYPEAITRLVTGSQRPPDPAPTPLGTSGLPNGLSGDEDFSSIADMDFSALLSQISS

## COc1cc(O)cc(O)c1C(=O)/C=C/c1ccc(O)cc1
  inhibition: Active

Source: ChEMBL document CHEMBL4330156, “Amides and Flavonoids from the Fruit and Leaf Extracts of Melodorum siamensis” (J Nat Prod, 2019)
